This is an account of results in patent US20250034170A1, “SMALL MOLECULE MODULATORS OF GLUCOCEREBROSIDASE ACTIVITY AND USES THEREOF” (Vanqua Bio, Inc., priority 2021, published 2025).

The assay has as its target T1, GCase (Homo sapiens, UniProt P04062).
T1 construct: endogenous in cells; host or cells: HeLa cells
T1 sequence (P04062 40-536): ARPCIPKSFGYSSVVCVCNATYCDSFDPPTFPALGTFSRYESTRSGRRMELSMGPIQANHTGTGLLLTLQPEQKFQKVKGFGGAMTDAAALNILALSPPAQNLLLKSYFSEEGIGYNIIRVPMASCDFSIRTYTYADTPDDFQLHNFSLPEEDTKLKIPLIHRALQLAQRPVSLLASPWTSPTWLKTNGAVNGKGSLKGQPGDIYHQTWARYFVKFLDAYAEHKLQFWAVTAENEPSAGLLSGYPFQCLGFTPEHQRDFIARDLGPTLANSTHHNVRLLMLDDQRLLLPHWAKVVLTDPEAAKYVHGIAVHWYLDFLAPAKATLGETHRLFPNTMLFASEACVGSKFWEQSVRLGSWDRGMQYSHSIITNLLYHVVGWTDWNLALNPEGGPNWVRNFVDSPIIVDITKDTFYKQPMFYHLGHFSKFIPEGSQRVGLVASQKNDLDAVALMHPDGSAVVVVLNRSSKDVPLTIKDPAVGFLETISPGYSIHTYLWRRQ
Briefly: activation of GCase in a live cell PFB assay in HELA cells. The format is cell-based. The procedure: Exemplary compounds were evaluated for activation of GCase in a live cell PFB assay in HELA cells (essentially as described in Ysselstein et al., “LRRK2 kinase activity regulates lysosomal glucocerebrosidase in neurons derived from Parkinson's disease patients” Nature Communications (2019) 10:5570). […] EC50 ranges: A: <10 μM; B: >10-50 μM; C: >50-100 μM; D: >100 μM.

[1] abbreviates: activation of GCase, EC50 ranges.

Take `FC(F)Cn1ncc2ncc(N3CCCC4(CC(Oc5cccc(C(F)(F)F)n5)C4)C3)nc21` (stereo not shown) [Compound 27, 6-[1-(2,2-difluoroethyl)-1H-pyrazolo[3,4-b]pyrazin-6-yl]-2-{[6-(trifluoromethyl)pyridin-2-yl]oxy}-6-azaspiro[3.5]nonane]: the EC50 (usually the midpoint of the concentration-response curve) under setting [1] lay within 10 to 50 µM.

In turn, `FC(F)c1ccnc(N2CCC3(CC2)CCN(c2cncc(-c4nncs4)n2)C3)c1` [Compound 164, 8-[4-(difluoromethyl)pyridin-2-yl]-2-[6-(1,3,4-thiadiazol-2-yl)pyrazin-2-yl]-2,8-diazaspiro[4.5]decane] yielded an EC50 under setting [1] of 10 to 50 µM.

Molecule `Cc1nc(N2CC3(CCN(c4cnc5c(C)nn(CC(C)(F)F)c5n4)C3)C2)cc(C(F)(F)F)n1` [Cmpd 1128] had an EC50 under setting [1] of 10 to 50 µM.

Turning to `FC(F)(F)c1ncc(N2CC3(CCN(c4cncc(-c5nnc(C(F)(F)F)s5)n4)C3)C2)cn1` [Cmpd 1025], the EC50 (EC50 given as range classes) is less than 10 µM.

Molecule `Cc1nn(CC(F)F)c2nc(N3CC4(CCN(c5ccnc(C(F)(F)F)c5)C4)C3)ncc12` [Cmpd 352] gave a concentration giving a half-maximal response (EC50) under setting [1] of less than 10 µM.

Consider `Cc1nc(N2CCC3(C2)CN(c2cnc4cnn(C5COC5)c4n2)C3)cc(C(F)(F)F)n1` [Cmpd 555], for which, under setting [1], the concentration for a half-maximal effect (EC50) was less than 10 µM.

Molecule `FC(F)Cn1ncc2ncc(N3CC4(CCCN(c5ccc(C(F)(F)F)nc5)C4)C3)nc21` [Compound 20, 2-[1-(2,2-difluoroethyl)-1H-pyrazolo[3,4-b]pyrazin-6-yl]-6-[6-(trifluoromethyl)pyridin-3-yl]-2,6-diazaspiro[3.5]nonane] returned an EC50 under setting [1] of 10 to 50 µM.

In turn, `Cc1nn(CC(F)F)c2nc(N3CCC4(CN(c5ccnc(C(F)(F)F)c5)C4)C3)n(C)c(=O)c12` [Cmpd 994] returned an EC50 (EC50 given as range classes) of less than 10 µM.

As for `O=S(=O)(c1ccc(F)cc1)N1CC2(CCN(c3cnc4cnn(CC(F)F)c4n3)C2)C1` [Cmpd 373], the 50% effective concentration (EC50) under setting [1] lay in the range of 10 to 50 µM.

In the case of `Cc1nc(N2CC3(CCN(c4ncc5c(C)nn(CC(F)F)c5n4)CC3)C2)cc(C(F)(F)F)n1` [Cmpd 569], the EC50 under setting [1] is 10 to 50 µM.

For `FC(F)Cn1ncc2ncc(N3CCC4(CN(c5ccc(Cl)cn5)C4)C3)nc21` [Cmpd 403], the EC50 (EC50 given as range classes) fell in the range of 10 to 50 µM.

Regarding `Cc1ncc(-c2nncs2)nc1N1CCC2(CN(c3cnc(C(F)(F)F)nc3)C2)C1` [Cmpd 1038], the EC50 under setting [1] lay within 10 to 50 µM.

For `O=C1CC2(CCN(c3cnc4cnn(CC(F)F)c4n3)CC2)CN1c1ccc(F)cc1F` [Cmpd 728], the EC50 under setting [1] was in the range of 10 to 50 µM.

In the case of `O=C1N(c2ccc(C(F)(F)F)nc2)CCC12CC1CCC(C2)N1c1cnc2cnn(CC(F)F)c2n1` (stereo not shown) [Cmpd 797], for the setting “EC50 given as range classes”, the EC50 was less than 10 µM.

Under setting [1], `Fc1ccc(F)c(OC2CC3(CCCN(c4cnc5cnn(CC(F)F)c5n4)C3)C2)c1` (stereo not shown) [Compound 24, 6-[1-(2,2-difluoroethyl)-1H-pyrazolo[3,4-b]pyrazin-6-yl]-2-(2,5-difluorophenoxy)-6-azaspiro[3.5]nonane] registered an EC50 of 10 to 50 µM.

For `O=C1N(c2ccc(C(F)(F)F)nc2)C(=O)C2(CCN(c3cnc4cnn(CC(F)F)c4n3)CC2)N1CC(F)F` [Cmpd 876], the EC50 under setting [1] was in the range of 10 to 50 µM.

The molecule `Cc1cc(CN2CC3(CCN(c4cnc5cnn(CC(F)F)c5n4)CC3)CC2=O)on1` [Cmpd 972] yielded an EC50 under setting [1] of 10 to 50 µM.

For the molecule `CCc1nccn1-c1cncc(N2CCC3(CC2)CCN(c2cc(C(F)(F)F)ccn2)C3=O)n1` [Cmpd 262], under setting [1], the EC50 is less than 10 µM.

As to `Cc1nc(N2CC3(CCN(c4ccc5c(C)nn(CC(F)F)c5n4)CC3)CC2=O)cc(C(F)(F)F)n1` [Cmpd 628], the EC50 (EC50 given as range classes) was less than 10 µM.

In the case of `FC(F)Cn1ncc2ncc(N3CCC4(CCCN(c5ccc(C(F)(F)F)nc5)C4)CC3)nc21` [Cmpd 214], for the setting “EC50 given as range classes”, the EC50 is 10 to 50 µM.

In the case of `FC(F)Cn1ncc2ncc(N3CCCC4(CCN(c5ccnc(C(F)(F)F)c5)CC4)C3)nc21` [Cmpd 226], the EC50 (EC50 given as range classes) was greater than 100 µM.

In turn, `FC(F)(F)c1ccc(N2CCC3(CCN(c4cncc(C(F)(F)F)n4)CC3)C2)cn1` [Cmpd 255] registered an EC50 under setting [1] of less than 10 µM.

Consider `CC1N(c2cc(C(F)(F)F)ccn2)CCC12CCN(c1cnc3cnn(CC(F)F)c3n1)CC2` (stereo not shown) [Cmpd 747], for which the EC50 under setting [1] was in the range of 10 to 50 µM.

Under setting [1], `FC(F)Cn1ncc2ncc(N3CCC4(CCC(Oc5cncc(C(F)(F)F)c5)C4)CC3)nc21` (stereo not shown) [Cmpd 691] registered an EC50 of 10 to 50 µM.

Under setting [1], `FC(F)c1nnc(-c2cncc(N3CCC4(CN(c5ccnc(C(F)(F)F)c5)C4)C3)n2)s1` [Cmpd 1062] registered an EC50 of 10 to 50 µM.

On to `FC(F)(F)c1cc(N2CCC3(C2)CN(c2cnc4cnn(C5COC5)c4n2)C3)ccn1` [Cmpd 344], for which, under setting [1], the EC50 was less than 10 µM.

`O=C1CC2(CCN(c3ncc4cnn(CC(F)F)c4n3)CC2)CN1c1ccc(C(F)(F)F)nc1` [Cmpd 828]: the EC50 (EC50 given as range classes) is 10 to 50 µM.

Consider `FC(F)(F)c1ncc(N2CC3(CCN(c4ncc5cnn(C6CCCCO6)c5n4)C3)C2)cn1` (stereo not shown) [Cmpd 469], for which the EC50 under setting [1] is greater than 100 µM.

The molecule `Cc1cc(N2CC3(CCN(c4cnc5c(C)nn(C6COC6)c5n4)C3)C2)nc(C(F)(F)F)n1` [Cmpd 1143] returned an EC50 under setting [1] of less than 10 µM.

Consider `Cc1nc2cnn(CC(F)F)c2nc1N1CCC2(CCN(c3cc(C(F)(F)F)ccn3)C2)CC1` [Compound 179, 8-[1-(2,2-difluoroethyl)-5-methyl-1H-pyrazolo[3,4-b]pyrazin-6-yl]-2-[4-(trifluoromethyl)pyridin-2-yl]-2,8-diazaspiro[4.5]decane], for which, where the note is “EC50 given as range classes”, the EC50 is 10 to 50 µM.

Consider `CCN1C(=O)N(c2ccc(C(F)(F)F)nc2)C(=O)C12CCN(c1cnc3cnn(C4COC4)c3n1)CC2` [Cmpd 866], for which the EC50 under setting [1] is 10 to 50 µM.

For `Cc1cc(N2CC3(CCN(c4cnc5cnn(CC(C)(F)F)c5n4)C3)C2)nc(C(F)(F)F)n1` [Cmpd 1134], the EC50 under setting [1] is greater than 100 µM.

In turn, `Cc1nn(CC(F)F)c2nc(N3CCC4(CC3)CCN(c3cc(C(F)(F)F)ccn3)C4=O)ncc12` [Cmpd 301] had an EC50 under setting [1] of 10 to 50 µM.

Consider `COc1nn(CC(F)F)c2nc(N3CCC4(CC3)CC(=O)N(c3nccc(C(F)(F)F)n3)C4)cnc12` [Cmpd 942], for which the EC50 under setting [1] was 10 to 50 µM.

Under setting [1], `FC(F)Cn1ncc2ncc(N3CCC4(CC3)CCN(c3ncccc3C(F)(F)F)C4)nc21` [Compound 145, 8-[1-(2,2-difluoroethyl)-1H-pyrazolo[3,4-b]pyrazin-6-yl]-2-[3-(trifluoromethyl)pyridin-2-yl]-2,8-diazaspiro[4.5]decane] came in with an EC50 of 10 to 50 µM.

As for `O=C1N(c2cc(C(F)(F)F)ccn2)C(=O)C2(CCN(c3cnc4cnn(CC(F)F)c4n3)CC2)N1Cc1ccc(F)c(F)c1` [Cmpd 719], the EC50 under setting [1] was less than 10 µM.

With `Cc1ncc(N2CC3(CCN(c4ncc5cnn(C6COC6)c5n4)C3)C2)c(C(F)(F)F)n1` [Cmpd 598], the half-maximal effective concentration (EC50) (EC50 given as range classes) was 10 to 50 µM.

The molecule `Cc1cc(N2CC3(CCN(c4cnc5cnn(C6COC6)c5n4)C3)C2)nc(C(F)(F)F)n1` [Cmpd 454] returned an EC50 under setting [1] of 10 to 50 µM.

Under setting [1], `CCn1c(N2CCC3(CN(c4ccnc(C(F)(F)F)c4)C3)C2)nc2c(cnn2CC(F)F)c1=O` [Cmpd 1101] returned an EC50 of 10 to 50 µM.

On to `O=C1N(c2cnc3cnn(CC(F)F)c3n2)CCC12CN(c1cnc(C(F)(F)F)nc1)C2` [Cmpd 1012], for which, for the setting “EC50 given as range classes”, the EC50 lay within 10 to 50 µM.

In the case of `FC(F)Cn1ncc2ncc(N3CC4(CCN(c5cncc(C(F)(F)F)c5)CC4)C3)nc21` [Compound 126, 2-[1-(2,2-difluoroethyl)-1H-pyrazolo[3,4-b]pyrazin-6-yl]-7-[5-(trifluoromethyl)pyridin-3-yl]-2,7-diazaspiro[3.5]nonane], the EC50 under setting [1] was less than 10 µM.

The molecule `Cc1nn(C2COC2)c2nc(N3CC4(CCN(c5ccnc(C(F)(F)F)c5)C4)C3)cnc12` [Cmpd 345] came in with an EC50 under setting [1] of less than 10 µM.

Under setting [1], `FC(F)Cn1ncc2ncc(N3CCCC4(C3)CN(c3cccnc3C(F)(F)F)C4)nc21` [Compound 26, 6-[1-(2,2-difluoroethyl)-1H-pyrazolo[3,4-b]pyrazin-6-yl]-2-[2-(trifluoromethyl)pyridin-3-yl]-2,6-diazaspiro[3.5]nonane] gave an EC50 of 10 to 50 µM.

`FC(F)Cn1ncc2ncc(N3CCCC4(CC(Oc5ccc(C(F)(F)F)nc5)C4)C3)nc21` (stereo not shown) [Compound 22, 6-[1-(2,2-difluoroethyl)-1H-pyrazolo[3,4-b]pyrazin-6-yl]-2-{[6-(trifluoromethyl)pyridin-3-yl]oxy}-6-azaspiro[3.5]nonane]: the EC50 under setting [1] fell in the range of 10 to 50 µM.

The molecule `CC[C@@H]1N(c2cnc(C(F)(F)F)nc2)C[C@]12CCN(c1cnc3cnn(CC(F)F)c3n1)C2` [Cmpd 1049] came in with an EC50 under setting [1] of 10 to 50 µM.

`Cc1nc(N2CC3(CCN(c4nc5c(cnn5CC(F)F)c(=O)n4C)C3)C2)cc(C(F)(F)F)n1` [Cmpd 1084] showed an EC50 under setting [1] of less than 10 µM.

For `CC(C)Oc1cncc(N2CCC3(CCN(c4ccc(C(F)(F)F)nc4)C3)CC2)n1` [Cmpd 254], the EC50 under setting [1] was in the range of 10 to 50 µM.

On to `Cc1nn(C2COC2)c2nc(N3CCC4(CCN(c5ccnc(C(F)(F)F)c5)C4)C3)cnc12` (stereo not shown) [Cmpd 476], for which, under setting [1], the EC50 fell in the range of 50 to 100 µM.

Under setting [1], `COc1nn(CC(F)F)c2nc(N3CCC4(C3)CN(c3cnc(C(F)(F)F)nc3C)C4)cnc12` [Cmpd 1093] came in with an EC50 of 10 to 50 µM.

Molecule `Cn1c(=O)n(CC(F)F)c2nc(N3CCC4(CN(c5ccnc(C(F)(F)F)c5)C4)C3)ncc21` [Cmpd 1142] returned a 50% effective concentration (EC50) under setting [1] of less than 10 µM.

With `O=C1CC2(CCN(c3cnc4cnn(CC(F)F)c4n3)CC2)CN1Cc1ccnc(C(F)(F)F)n1` [Cmpd 915], the EC50 under setting [1] is less than 10 µM.

As to `FC(F)(F)Cn1ncc2ncc(N3CCC4(CN(c5cnc(C(F)(F)F)nc5)C4)C3)nc21` [Cmpd 426], the EC50 (EC50 given as range classes) was in the range of 10 to 50 µM.
